Assay results reported in US5362364A, “Process for producing alkaline paper” (Mitsubishi Paper Mills Limited, priority 1990, dated 1994).

What was measured:
slime = test: ninhydrin reaction of the paper stock filtrate (slime formation); details: for slime inhibiting effect: slimecide added in advance to cationic starch, compared with conventional direct addition
Method: (§1) A part of the paper stock as obtained above was stored at 32° C. for 7 days and then, filtered by means of a wire screen. The filtrate was subjected to ninhydrin reaction and the effectiveness of the slimecide controlling agent was evaluated based on the result of the ninhydrin reaction. The filtrate was called "Sample 1-2".
Ninhydrin reaction was effected by adding 0.5 ml of a 1% aqueous solution of nonhydrin to 10 ml of the filtrate, and the result was evaluated depending on the degree of color change of the resulting solution to reddish purple.
as §1, with “net.” for “screen.”, “slime” for “slimecide”, “5-2".” for “1-2".”
(§2) Measurement of the sizing degree, evaluation of the mutagenicity, and ninhydrin reaction in Table 3 and Table 4 were conducted in the same manner as in Table 1 and Table 2.

[1] = Stockigt sizing degree of paper according to JIS P 8122; type: physicochemical; details: compared with Sample 3-1 and 4-1 (DMTT) or Sample 7-1 and 8-1 (bromonitroalcohol)
Method: The paper stock immediately after prepared was used to prepare a hand sheet having a basis weight of 60 g/m^2. The resulting sheet was dried at 80° C. for 5 min. in a hot air drier. The sheet thus prepared was called "Sample 1-1".
In the above, the sizing degree was measured by Testing method for Stockigt sizing degree of paper according to JIS P 8122.
The 0.1% addition of the alkylketene dimer should develop the sizing degree of 20-25 sec. unless other chemicals used together interfere with it.
The paper stock immediately after prepared was used to prepare a handmade sheet having a basis weight of 60 g/m^2. The resulting sheet was dried at 80° C. for 5 min. in a hot air drier. The sheet thus prepared was called "Sample 5-1".
as §2

[2] = system: Salmonella typyhimurium TA 100; test: mutagenicity test (reverse mutation test) on hand sheet extract, Ministry of Labor Order No. 261; type: cell-based; details: compared with Sample 3-1 and 4-1 (DMTT) or Sample 7-1 and 8-1 (bromonitroalcohol)
Method: That is, each hand sheet was subjected to extraction using a mixture of benzene/ethanol (9/1, by volume) at 80° C. for three hours, and the resulting extractant was subjected to a reverse mutation test using Salmonella typyhimurium TA 100 without following a metabolism activating method.
When the number of reverse mutation colony increased to twice or more that in the case of dimethyl sulfoxide used as a control solvent, it was determined "positive".

| SMILES | slime inhibiting effect (slime) | effect on sizing [1] | amount of slimecide relative to amount added in conventional manner (slime; slime inhibition with slimecide added in advance to cationic starch, based on paper stock solid matter) | safety for man [2] |
| --- | --- | --- | --- | --- |
| CN1CSC(=S)N(C)C1 [DMTT, 3,5-dimethyltetrahydro-1,3,5-2H-thiadiazine-2-thione] | excellent slime inhibiting effect | minimal adverse effect on sizing |  |  |
| O=[N+]([O-])C(Br)(CO)CO [2-bromo-2-nitropropane-1,3-diol] | slime formation can be effectively inhibited | nor adversely affects the sizing property | about 1/10 | neither harmful to man |
